Experimental findings from patent publication US20150147350A1, “Method Of Treating Cancer With MEGEA3 Immunotherapeutic With BRAF Inhibitor And/Or MEK Inhibitor” (GlaxoSmithKline LLC, priority 2011, published 2015) are described below.

This data set deals with systemic immunity. Nature of the data set: Peripheral blood immune-monitoring in cancer patients treated with BRAF inhibitor. As to the method: 13 patients with tumors carrying a BRAF mutation who underwent treatment with GSK2118436 (the compound of formula (I)), a V600 mutant BRAF specific inhibitor were studied to assess effects of mutant BRAF inhibition on systemic immunity. Peripheral blood immune-monitoring was carried out before and following one or two 28-day cycles of treatment.

For the compound `CC(C)(C)c1nc(-c2cccc(NS(=O)(=O)c3c(F)cccc3F)c2F)c(-c2ccnc(N)n2)s1` [GSK2118436, N-{3-[5-(2-Amino-4-pyrimidinyl)-2-(1,1-dimethylethyl)-1,3-thiazol-4-yl]-2-fluorophenyl}-2,6-difluorobenzenesulfonamide], the “impact on most immune parameters tested (serum cytokine levels, peripheral blood cell counts, leukocyte subset frequencies, memory CD4+ and CD8+ T-cell recall responses)” value (13 patients, before and following one or two 28-day cycles of treatment) is “no detectable impact”. The “serum TNF-α over the course of treatment” value (13 patients, one or two 28-day cycles of treatment) is on record as “slight increase”. The “negative impact on existing systemic immunity or the de novo generation of tumor-specific T cells” value (patients, conclusion of the study) is listed as “no detectable negative impact”. The “circulating tumor antigen-specific CD8+ T cells” value (three of the four human leukocyte antigen-A2-positive patients, following BRAF(V600) inhibitor therapy) is on record as “modest increase”.
